Measurements: the NIST ThermoML archive (doi:10.1021/je200862b)

Tests used:
[1] = 101 kPa, Liquid; for viscosity: Capillary tube (Ostwald / Ubbelohde) method
[2] = xn = mol fraction of the nth substance listed; details: 101 kPa, Liquid; for viscosity: Capillary tube (Ostwald / Ubbelohde) method

CCN(CC)c1ccccc1 [N,N-diethylaniline]
[1]
Details	viscosity [mPa·s]
303.15 K	1.703
313.15 K	1.402
323.15 K	1.049

[1], Vibrating tube method
Details	mass density [kg/m3]
303.15 K	925.98
313.15 K	917.72
323.15 K	912.8

CCN(CC)c1ccccc1 [N,N-diethylaniline] + CCC(=O)O
viscosity [mPa·s], [2]
Details	x2 = 0	x2 = 0.1047	x2 = 0.2096	x2 = 0.3142	x2 = 0.4164	x2 = 0.5177	x2 = 0.6097	x2 = 0.7077	x2 = 0.8123	x2 = 0.9156
303.15 K	1.703	1.801	2.04	2.404	2.91	3.663	4.04	3.968	3.26	1.532
313.15 K	1.402	1.45	1.59	1.765	2.118	2.527	2.88	2.737	2.086	1.247
323.15 K	1.049	1.068	1.173	1.315	1.555	1.865	2.1	1.949	1.51	0.9723

mass density [kg/m3], [2], Vibrating tube method
Details	x2 = 0	x2 = 0.1047	x2 = 0.2096	x2 = 0.3142	x2 = 0.4164	x2 = 0.5177	x2 = 0.6097	x2 = 0.7077	x2 = 0.8123	x2 = 0.9156
303.15 K	925.98	933.41	942.07	952.1	963.82	977.88	989.1	996.15	995	990.93
313.15 K	917.72	924.61	932.8	942.21	953.72	967.27	977.5	983.95	982.7	980.07
323.15 K	912.8	919.51	926.38	934.92	944.35	955.31	965.34	971.29	974.71	974.19

CN(C)c1ccccc1 [N,N-dimethylaniline]
[1]
Details	viscosity [mPa·s]
303.15 K	1.174
313.15 K	0.9823
323.15 K	0.8259

[1], Pycnometric method
Details	mass density [kg/m3]
303.15 K	948.02
313.15 K	938.5
323.15 K	930.72

CN(C)c1ccccc1 [N,N-dimethylaniline] + CCC(=O)O
viscosity [mPa·s], [2]
Details	x2 = 0	x2 = 0.102	x2 = 0.2054	x2 = 0.3071	x2 = 0.4092	x2 = 0.5107	x2 = 0.6178	x2 = 0.7083	x2 = 0.8023	x2 = 0.8987
303.15 K	1.174	1.27	1.329	1.386	1.446	1.494	1.545	1.534	1.457	1.225
313.15 K	0.9823	1.019	1.058	1.093	1.124	1.149	1.151	1.119	1.06	0.9646
323.15 K	0.8259	0.8432	0.8693	0.8949	0.9196	0.9397	0.9442	0.9121	0.864	0.7783

mass density [kg/m3], [2], Pycnometric method
Details	x2 = 0	x2 = 0.102	x2 = 0.2054	x2 = 0.3071	x2 = 0.4092	x2 = 0.5107	x2 = 0.6178	x2 = 0.7083	x2 = 0.8023	x2 = 0.8987
303.15 K	948.02	954.36	959.8	964.49	969.31	974.03	978.56	982.24	985.32	986.44
313.15 K	938.5	943.74	949.09	954.21	959.17	963.99	968.62	972.2	975.35	975.69
323.15 K	930.72	934.82	939.72	944.52	–	953.51	958	961.05	963.47	963.54

CCC(=O)O [propanoic acid]
[1]
Details	viscosity [mPa·s]
303.15 K	0.9496
313.15 K	0.8476
323.15 K	0.7062

[1], Pycnometric method
Details	mass density [kg/m3]
303.15 K	982.09
313.15 K	973.4
323.15 K	961.39

CCC(=O)O [propanoic acid] + CCN(CC)c1ccccc1
[2], x1 = 1
Details	viscosity [mPa·s]
303.15 K	0.9496
313.15 K	0.8476
323.15 K	0.7062

[2], Vibrating tube method, x1 = 1
Details	mass density [kg/m3]
303.15 K	982.09
313.15 K	973.4
323.15 K	961.39

CCC(=O)O [propanoic acid] + CN(C)c1ccccc1
[2], x1 = 1
Details	viscosity [mPa·s]
303.15 K	0.9496
313.15 K	0.8476
323.15 K	0.7062

[2], Pycnometric method, x1 = 1
Details	mass density [kg/m3]
303.15 K	982.09
313.15 K	973.4
323.15 K	961.39
